Results from publication PMC10458458, “Characterization of Anticancer Effects of the Analogs of DJ4, a Novel Selective Inhibitor of ROCK and MRCK Kinases” (Pharmaceuticals, 2023).

Legend:
[1] = target: T1, MRCKα (Homo sapiens, UniProt Q5VT25); experiment: Cell-free biochemical kinase activity assay (pMYPT1 immunoblot)
T1 construct: purchased Invitrogen
Experimental: (§1) Cell-free biochemical kinase inhibitory activity of these compounds was evaluated at 1 µM concentration using the previously described ROCK1 kinase activity assay. Among the 27 analogs, we identified four analogs (DJ110, DJ-Allyl, DJE4, and DJ-Morpholine) with >50% inhibition of MYPT1 phosphorylation (Supplementary Figure S1). These four compounds were selected for further evaluation at 1 µM and 0.1 µM for their in vitro inhibitory activity against ROCK1, ROCK2, MRCKα, and MRCKβ kinases.
(§2) Cell-free biochemical kinase activity was assayed using published procedures. Briefly, recombinant ROCK1 (9.48 nM) or ROCK2 (8.26 nM; Invitrogen, Waltham, MA, USA) was incubated in the presence of 0.1 and 1 µM concentrations of DJ4 analogs or DMSO in ROCK-assay buffer at room temperature (RT) for 10 min. MRCKα and MRCKβ (2 ng/µL; Invitrogen) assays were performed in the assay buffer recommended by the manufacturer. Recombinant MYPT1 (20 ng/µL; Millipore) and ATP (5 µM) were added to initiate the reaction. The reaction was incubated at 30 °C for 20 min. Western blot analysis of these samples for phosphorylation of MYPT1 was performed as per the method mentioned in our earlier publication. Briefly, an equal amount of sample was loaded on Bis-Tris gel (Novex, Life Technologies, Carlsbad, CA, USA), proteins were electrophoresed and transferred to PVDF membranes. The blots were probed with anti-pMYPT1 (Thr696) or anti-MYPT1 (Millipore) antibodies.

[2] = target: T2, MRCKβ (Homo sapiens, UniProt Q9Y5S2); experiment: as above; conditions: 1 µM
T2 construct: purchased Invitrogen
T2 sequence (Q9Y5S2 whole entry): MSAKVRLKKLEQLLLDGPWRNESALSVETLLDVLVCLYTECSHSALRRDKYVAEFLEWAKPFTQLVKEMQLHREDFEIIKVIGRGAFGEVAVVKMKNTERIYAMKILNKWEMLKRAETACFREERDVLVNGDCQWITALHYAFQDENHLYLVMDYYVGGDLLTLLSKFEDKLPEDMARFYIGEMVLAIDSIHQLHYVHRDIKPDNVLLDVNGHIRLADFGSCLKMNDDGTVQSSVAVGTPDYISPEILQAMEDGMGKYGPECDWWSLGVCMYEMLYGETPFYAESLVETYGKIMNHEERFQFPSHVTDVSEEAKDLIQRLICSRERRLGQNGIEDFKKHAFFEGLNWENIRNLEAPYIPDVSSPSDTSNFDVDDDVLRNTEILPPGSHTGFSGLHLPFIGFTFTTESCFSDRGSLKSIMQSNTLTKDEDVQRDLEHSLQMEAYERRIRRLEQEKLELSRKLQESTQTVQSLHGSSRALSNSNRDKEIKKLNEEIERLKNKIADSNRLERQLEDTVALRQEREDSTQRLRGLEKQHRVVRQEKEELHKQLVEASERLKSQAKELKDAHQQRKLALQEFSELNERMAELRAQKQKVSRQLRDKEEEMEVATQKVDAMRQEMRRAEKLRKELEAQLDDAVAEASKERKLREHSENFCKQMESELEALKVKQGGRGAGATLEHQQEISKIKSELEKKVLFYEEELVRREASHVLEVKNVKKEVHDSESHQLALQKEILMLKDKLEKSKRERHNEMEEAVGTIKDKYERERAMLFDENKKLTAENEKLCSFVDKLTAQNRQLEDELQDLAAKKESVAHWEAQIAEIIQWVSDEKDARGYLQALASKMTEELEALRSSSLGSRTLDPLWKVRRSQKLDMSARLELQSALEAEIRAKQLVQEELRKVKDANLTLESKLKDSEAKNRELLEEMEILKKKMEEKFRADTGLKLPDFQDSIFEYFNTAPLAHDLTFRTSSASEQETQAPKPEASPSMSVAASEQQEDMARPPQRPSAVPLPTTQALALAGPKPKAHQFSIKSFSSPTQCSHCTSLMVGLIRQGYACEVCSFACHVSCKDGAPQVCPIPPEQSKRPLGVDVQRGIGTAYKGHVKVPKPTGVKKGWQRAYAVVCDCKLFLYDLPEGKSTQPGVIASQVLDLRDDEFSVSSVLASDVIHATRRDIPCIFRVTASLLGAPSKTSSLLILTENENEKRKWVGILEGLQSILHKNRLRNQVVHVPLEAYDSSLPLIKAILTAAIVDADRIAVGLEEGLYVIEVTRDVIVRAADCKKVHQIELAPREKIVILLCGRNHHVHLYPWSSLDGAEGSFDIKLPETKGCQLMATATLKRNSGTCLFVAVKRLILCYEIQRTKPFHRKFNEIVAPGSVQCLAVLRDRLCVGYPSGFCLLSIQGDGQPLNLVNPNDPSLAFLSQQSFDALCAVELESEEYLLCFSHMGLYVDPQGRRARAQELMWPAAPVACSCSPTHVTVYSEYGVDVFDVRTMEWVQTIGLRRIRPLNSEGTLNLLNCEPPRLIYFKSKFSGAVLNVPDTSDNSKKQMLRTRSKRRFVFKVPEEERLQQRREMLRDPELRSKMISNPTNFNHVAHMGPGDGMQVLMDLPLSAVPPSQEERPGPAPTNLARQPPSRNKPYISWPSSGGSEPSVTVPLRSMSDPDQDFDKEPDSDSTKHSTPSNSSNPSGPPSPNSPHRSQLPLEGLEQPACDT
Experimental: as §1, §2

[3] = system: MDA-MB-231; experiment: MTT cell growth assay, 48 h; assay type: cell-based, human; conditions: for IC50: Homo sapiens, MDA-MB-231, 48 h, 2000 cells/well, ±SE, read-out: IC50 from MTT assays
Experimental: However, as the concentration increased from 2.5 µM onwards, the effect was reversed. Similarly, DJ-Morpholine decreased the cell growth by ~30% at 0.6215 µM, while the effect remained saturated as the concentration increased. This trend was also observed in A549 lung cancer and A375M melanoma cells.
Figure 7 DJ4 analogs reduce cell growth in melanoma, breast, and lung cancer cells. MTT assay was performed to evaluate the effect of DJ4 analogs on cell growth after 48 h of treatment. IC50 values were calculated with nonlinear least squares regression curve fit by GraphPad prism. […] The error bars indicate SD from triplicates of the experiment.
The cytotoxic effect of DJ4 was studied in H1299, H226, A549, H522, H23, and H460 non-small cell lung cancer cells. The cells were seeded into 96-well plates with confluence ([…]). The cells were further treated with DMSO or DJ4 for 72 h. To study the effects of analogs, A549, A375M, and MDA-MB-231 cells were plated with low density (2000 cells/well) in a 96-well plate and grown overnight at 37 °C (with 5% CO2). Cells were treated with the analogs at the concentration of 0–10 µM for 48 h. At the end of the treatment period, cells were incubated with a tetrazolium dye MTT (3-(4,5-dimethylthiazol-2-yl)-2,5-diphenyltetrazolium bromide) reagent (Sigma) at 37 °C for 3 h to develop formazan crystals. The media was siphoned off and crystals were dissolved in DMSO and mixed gently on rocker for 5 min. Absorbance was read at 570 nm and 630 nm (background) wavelength. IC50 values were calculated from non-linear regression curve fit by using GraphPad Prism 5.0 software.

T1 sequence (Q5VT25 whole entry): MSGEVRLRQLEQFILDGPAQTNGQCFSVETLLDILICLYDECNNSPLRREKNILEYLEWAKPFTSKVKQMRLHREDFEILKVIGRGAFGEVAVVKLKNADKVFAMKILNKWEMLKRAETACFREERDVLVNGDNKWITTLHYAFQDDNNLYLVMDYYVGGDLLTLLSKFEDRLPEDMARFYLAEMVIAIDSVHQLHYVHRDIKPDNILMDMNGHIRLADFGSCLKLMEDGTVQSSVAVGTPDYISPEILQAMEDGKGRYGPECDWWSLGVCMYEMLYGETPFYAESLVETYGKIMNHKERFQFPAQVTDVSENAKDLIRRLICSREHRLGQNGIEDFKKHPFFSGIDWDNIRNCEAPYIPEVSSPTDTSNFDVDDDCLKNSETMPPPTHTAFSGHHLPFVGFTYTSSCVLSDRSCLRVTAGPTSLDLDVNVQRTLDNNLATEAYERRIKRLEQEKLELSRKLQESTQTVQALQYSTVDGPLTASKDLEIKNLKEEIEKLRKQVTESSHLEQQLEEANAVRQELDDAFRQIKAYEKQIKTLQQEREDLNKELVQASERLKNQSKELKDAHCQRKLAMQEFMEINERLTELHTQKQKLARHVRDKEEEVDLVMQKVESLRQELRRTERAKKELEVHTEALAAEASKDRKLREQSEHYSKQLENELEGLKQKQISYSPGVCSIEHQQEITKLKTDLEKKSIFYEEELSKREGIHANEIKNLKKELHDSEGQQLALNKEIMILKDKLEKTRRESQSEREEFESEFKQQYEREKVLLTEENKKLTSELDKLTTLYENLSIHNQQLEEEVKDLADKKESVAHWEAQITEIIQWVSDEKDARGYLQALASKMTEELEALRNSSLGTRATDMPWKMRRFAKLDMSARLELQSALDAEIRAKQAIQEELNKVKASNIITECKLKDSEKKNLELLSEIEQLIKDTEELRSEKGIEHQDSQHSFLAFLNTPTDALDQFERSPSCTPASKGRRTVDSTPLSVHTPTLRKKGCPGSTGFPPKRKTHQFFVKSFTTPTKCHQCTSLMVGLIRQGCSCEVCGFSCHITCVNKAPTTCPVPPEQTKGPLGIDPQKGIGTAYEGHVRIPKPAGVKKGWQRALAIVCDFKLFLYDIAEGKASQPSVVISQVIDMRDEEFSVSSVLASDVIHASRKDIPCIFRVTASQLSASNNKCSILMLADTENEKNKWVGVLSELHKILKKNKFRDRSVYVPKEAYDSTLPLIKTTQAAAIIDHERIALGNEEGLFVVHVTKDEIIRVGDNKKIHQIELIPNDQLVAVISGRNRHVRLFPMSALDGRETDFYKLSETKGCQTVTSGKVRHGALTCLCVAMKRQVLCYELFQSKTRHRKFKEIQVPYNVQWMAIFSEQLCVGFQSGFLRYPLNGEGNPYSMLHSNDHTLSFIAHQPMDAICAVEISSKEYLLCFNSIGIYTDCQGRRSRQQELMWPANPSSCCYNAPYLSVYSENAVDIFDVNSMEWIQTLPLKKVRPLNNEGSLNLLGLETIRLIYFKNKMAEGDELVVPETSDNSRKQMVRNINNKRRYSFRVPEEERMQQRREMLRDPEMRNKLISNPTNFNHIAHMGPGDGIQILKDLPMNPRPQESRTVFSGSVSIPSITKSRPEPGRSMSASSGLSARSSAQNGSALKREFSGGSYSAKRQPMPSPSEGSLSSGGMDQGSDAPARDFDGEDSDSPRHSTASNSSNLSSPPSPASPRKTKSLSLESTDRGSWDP

SMILES | inhibition of kinase activity (qualitative immunoblot) ([1]; 1 µM) | inhibition of kinase activity (qualitative immunoblot) [2] | IC50 [3] [µM] | inhibition of kinase activity (qualitative immunoblot) ([1]; 0.1 µM) | decrease in cell growth ([3]; MDA-MB-231, 0.6215 µM, 48 h, effect saturated at higher concentrations)
CC/N=C1\NC(=O)/C(=C\c2c[nH]c3ncccc23)S1 [DJE4] | minimal inhibition | minimal inhibition | 5.9 ± 1.63 | – | –
O=C1N/C(=N\CCc2ccccc2)S/C1=C/c1c[nH]c2ncccc12 [DJ4] | significantly inhibit | significantly inhibit | 2.3 ± 0.23 | ineffective | –
O=C1N/C(=N\Cc2ccccc2)S/C1=C/c1c[nH]c2ncccc12 [DJ110] | significantly inhibit | significantly inhibit | 0.65 ± 0.07 | significantly inhibited | –
O=C1N/C(=N\CCN2CCOCC2)S/C1=C/c1c[nH]c2ncccc12 [DJ-Morpholine] | minimal inhibition | minimal inhibition | > 10 | – | ~ 30%
C=CC/N=C1\NC(=O)/C(=C\c2c[nH]c3ncccc23)S1 [DJ-Allyl] | minimal inhibition | minimal inhibition | 4.1 ± 1.23 | – | –
